Data reported in patent publication US8580920B2, “Peptides useful for skin lightening” (Conopco, Inc., priority 2009, dated 2013).
Where two headings read alike, the source gives them in different places. Bridges are numbered along the chain shown (N, C = ends).

System: human epidermal keratinocytes neonatal (HeKn) and human epidermal melanocytes neonatal darkly pigmented (HeMnDP) co-culture
Conditions: 72 hours, with respect to untreated control
Description: The ability of various materials to act as skin lightening agents was measured using the melanin content assay. The experiments were carried out as per the following procedure:
A 2:1 ratio mix containing 100 000 human epidermal keratinocytes neonatal (HeKn) (neonatal foreskin keratinocytes from Cascade Biologicals) and 50 000 human epidermal melanocytes neonatal darkly pigmented (HeMnDP) (darkly pigmenting cells neonatal foreskin melanocytes from Cascade Biologicals) were seeded per well, in a 24 well cell culture plate, to establish a co-culture system. After overnight incubation, cells were treated with fresh media containing the test actives (untreated or vehicle controls set up in parallel) and incubated for 72 hours after treatment. Then media was removed and replaced with 80 μl of dimethyl sulphoxide (DMSO). The plate was further incubated with DMSO for 1 hour at 65° C., after which the well contents were triturated and the same sample used to assay both for melanin content (read at 450 nm in a plate reader) and protein estimation (regular BiCinchoninic Acid method, kit from Peirce). % reduction in melanin was with respect to untreated control.

O=c1cc(CO)occ1O [Kojic acid, reference compound]
% REDUCTION IN MELANIN CONTENT (100 μM): 19 (±1) %

-Gly-Cys-His-Gly-His-Pro-Phe-Ala-Pro-Cys-Ala- [Peptide 2] (H-GCHGHPFAPCA-OH; disulfide 2-10; N-terminus and C-terminus assumed; SMILES C[C@H](NC(=O)[C@@H]1CSSC[C@H](NC(=O)CN)C(=O)N[C@@H](Cc2c[nH]cn2)C(=O)NCC(=O)N[C@@H](Cc2c[nH]cn2)C(=O)N2CCC[C@H]2C(=O)N[C@@H](Cc2ccccc2)C(=O)N[C@@H](C)C(=O)N2CCC[C@H]2C(=O)N1)C(=O)O)
% REDUCTION IN MELANIN CONTENT (46 μM): 12 (±10) %

-Gly-Cys-Leu-Ser-Arg-His-Val-Leu-Gln-Cys-Ala- [Peptide 1]
% REDUCTION IN MELANIN CONTENT (42 μM): 5 (±2) %
% REDUCTION IN MELANIN CONTENT (420 μM): 22 (±3) %
